Reference: patent EP0294538B1, “Use of nigericin for the production of a medicament for the treatment of viral diseases” (S O "PHARMACHIM", priority 1987, dated 1988)

How the values were obtained:
trächtigen weißen Ratten = assay: Embryotoxicity and teratogenicity by injection; type: in vivo; settings: doses up to 5,6 mg/kg, pregnant white rats
Method: (§1) Bei Spritzenbehandlung: Die akute Toxizität bei weißen Ratten und Mäusen (=LD₅₀) liegt im Bereich von 55 bis 66 mg/kg. Die chronische sechsmonatige Toxizität in Dosen bis 1/10 der LD₅₀ beträgt bis zu 5,6 mg/kg. […] Die pharmakologische Untersuchung zeigte gute Toleranz bei verschiedenen Tieren bei Konzentrationen bis zu 1/10 der LD₅₀.

zentralen Nervensystem = assay: Safety pharmacology: central nervous system; settings: in vivo
Method: as §1

Herpes-Erkrankungen = assay: Efficacy of nigericin ointment depending on the start of treatment (Table 4); type: in vivo, Patienten; settings: treatment begun on the first day; analysis of 88 patients
Source text: Es wurde die Abhängigkeit zwischen der Wirksamkeit der Behandlung mit Nigerizin-Salbe und dem Beginn der Behandlung untersucht (siehe Tabelle 4). TABELLE 4
Bei 140 mit Nigerizin-Salbe behandelten Patienten wurde eine Wirksamkeit von 90% erreicht, verglichen mit weniger als 20% für die mit Placebo behandelten Kontrollgruppe. Die eingehende Analyse der Ergebnisse an 88 Patienten zeigt, daß es sehr wichtig ist, bei Nigerizin früh mit der Behandlung zu beginnen, wobei am ersten Tag die Wirksamkeit bis zu 100% beträgt. Bei den Patienten, die mit einer Placebo-Salbe behandelt wurden, wird die Wirksamkeit nicht durch die Phase der Erkrankung beeinflußt, was ihren nicht spezifischen Charakter beweist.

Ratten = assay: Chronic six-month toxicity by injection; type: in vivo; settings: six months, doses up to 1/10 of LD₅₀ (up to 5,6 mg/kg), blood, coagulation, blood and urine biochemistry, liver, histology, general state, weight, behaviour
Method: as §1

Auge eines Kaninchens = type: in vivo, Kaninchen; settings: topical; doses 20 times the therapeutic concentrations; 10 days
[1] = tested on: Glattmuskulatur des Magen-Darm-Wegs; assay: Safety pharmacology: smooth muscle of the gastrointestinal tract; type: in vivo, Ratten und Kaninchen; settings: rats and rabbits
Method: as §1

[2] = tested on: Herz-Blutgefäß-System von Katzen; assay: Safety pharmacology: cardiovascular system (blood pressure, electrocardiogram); type: in vivo; settings: cats; blood pressure and electrocardiograms
Method: as §1

Mutagenicity = assay: Mutagenicity
Method: as §1

[3] = tested on: Virus-Erkrankungen des Auges; assay: Clinical study of different treatments of viral diseases of the eye (Table 1); type: in vivo, Patienten
Source text: Ergebnisse der klinischen Untersuchungen von Nigerizin (s. Tabelle 1).
Das Nigerizin enthaltende Arzneimittel in Form von Tropfen, Salbe und Suppositorien wurde an insgesamt 711 Patienten mit verschiedenen Virus-Erkrankungen: Labial-, Fazial-, Genital- und Gluteal- oder Femoralherpes, Herpes und Adenovirus-Keratitis und Konjunktivitis, Vaginitis, Endocervicitis und Exocervicitis mit Herpes-Ethiologie, Herpes Zoster der Augen und Haut angewendet.
Nigerizin-Tropfen wurden an 112 Patienten in drei Augenkliniken des Medizinischen Akademie-Forschungsinstitutes für Augenkrankheiten, Lehrstuhl für Ophthalmologie an den Hochschulen für Medizin in Varna und in Pleven verabreicht.

verschiedenen Tieren = assay: Pharmacological tolerance study; type: in vivo; settings: various animals; up to 1/10 of LD₅₀
Method: as §1

[4] = Acute toxicity by injection (LD50); set-up: species or system weißen Ratten und Mäusen; settings: in vivo, white rats and mice, read-out: akute Toxizität (=LD₅₀)
Method: as §1

[5] = Adenovirus-Keratokonjunktivitis

Row | SMILES | embryotoxische und terratogene Wirkung (trächtigen weißen Ratten) | Veränderungen im zentralen Nervensystem (zentralen Nervensystem) | Wirksamkeit (Herpes-Erkrankungen) | chronische sechsmonatige Toxizität: Abweichungen der behandelten Ratten (Ratten) | toxische Wirkung am Auge (Auge eines Kaninchens) | Funktionen der Glattmuskulatur des Magen-Darm-Wegs [1] | Wirkung auf das Herz-Blutgefäß-System [2] | Mutagenität (Mutagenicity) | Dauer der Behandlung ([3]; compared with Idoxyridin, immune and physico-chemical means) | Toleranz (verschiedenen Tieren) | LD50 [4] | Dauer der Behandlung (Tage) [3, 5] | Prozent der günstigen Beeinflußung [3, 5] | Dauer der Behandlung (Tage) ([3]; Oberflächen-Herpeskeratitis) | Prozent der günstigen Beeinflußung ([3]; Oberflächen-Herpeskeratitis) | Dauer der Behandlung (Tage) ([3]; Tiefe/Ulzerose/ Keratitis) | Prozent der günstigen Beeinflußung ([3]; Tiefe/Ulzerose/ Keratitis) | Durchschnittsaufenthalt im Krankenhaus (Tage) ([3]; all clinical forms of the treatment group)
1 | COC1CC(CC2CCC(C)C(C(C)C(=O)O)O2)OC2(OC(C)(C3CCC(C)(C4OC(C5OC(O)(CO)C(C)CC5C)CC4C)O3)CC2C)C1C (stereo not drawn) [Nigerizin] | keine embryotoxische und terratogene Wirkung | keine Veränderungen | ≤ 100% | keine Abweichungen | keine toxische Wirkung | ändert nicht | keine Wirkung | keine Mutagenität | um mehr als zweimal verringert | gute Toleranz | 55 to 66 mg/kg |  |  |  |  |  |  | 
2 | O=c1[nH]c(=O)n([C@H]2C[C@H](O)[C@@H](CO)O2)cc1I [Idoxyridin, 2'-desoxy-5-iodo-uridin] |  |  |  |  |  |  |  |  |  |  |  | 9,3 Tage | 41 Prozent | 17,9 Tage | 82 Prozent | 25,2 Tage | 51 Prozent | 23,6 Tage
